According to US5798442A, “Peptidyl derivatives as inhibitors of pro-apoptotic cysteine proteinases” (Merck Frosst Canada, Inc., priority 1995, dated 1998):
“Also recorded” adds a separate entry of the source.

Columns and labels:
[1] = target: T1, apopain/CPP32 (Homo sapiens, UniProt P42574); experiment: continuous fluorometric assay with Ac-DEVD-AMC and purified apopain; format: biochemical
T1 construct: cleavage between Asp^28 -Ser^29 and Asp^175 -Ser^176; cleavage sites which yield the p17 and p12 subunits from the CPP32 proenzyme; endogenous in cells; host or cells: THP-1 cells (ATCC TIB 202)
T1 sequence (P42574 29-175 limits assumed): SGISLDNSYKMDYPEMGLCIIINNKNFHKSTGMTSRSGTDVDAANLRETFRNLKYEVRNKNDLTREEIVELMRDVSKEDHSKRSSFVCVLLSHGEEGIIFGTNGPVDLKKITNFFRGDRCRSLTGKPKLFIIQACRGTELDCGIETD
T1 sequence (P42574 176-277 limits assumed): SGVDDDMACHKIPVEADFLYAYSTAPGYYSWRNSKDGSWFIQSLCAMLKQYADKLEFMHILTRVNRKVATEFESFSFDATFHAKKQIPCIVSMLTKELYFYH

[2] = tested on: intact cells; experiment: activity in intact cells; format: cell-based
[3] = target: T2, PARP cleavage activity in apoptotic osteosarcoma cell extracts (Homo sapiens, UniProt P42574); experiment: [35S]PARP cleavage by cytosolic extracts of apoptotic osteosarcoma cells; format: biochemical; settings: for IC50: apoptotic osteosarcoma cell extracts, [35S]PARP, read-out: IC50 for inhibition of PARP cleavage activity; for effect on proteolytic cleavage of PARP: FIG. 2a, 5 mM N-ethylmaleimide, 5 mM iodoacetamide, 10 μM E-64
T2 construct: 10 μg protein from the cytosol fraction of apoptotic osteosarcoma cells (from 7 day, post-confluent cultures); endogenous in cells; host or cells: human osteosarcoma cells 143.98.2 (ATCC CRL 11226), 7 day post-confluent (apoptotic), cytosol fraction
T2 sequence (P42574 29-175 limits assumed): T1 sequence (P42574 29-175 limits assumed)
T2 sequence (P42574 176-277 limits assumed): T1 sequence (P42574 176-277 limits assumed)

Row | Compound | IC50 [3] [µM] | effect on proteolytic cleavage of PARP [3] | other results
1 | CC(=O)N[C@@H](CC(=O)O)C(=O)N[C@@H](CCC(=O)O)C(=O)N[C@H](C(=O)NC(C=O)CC(=O)O)C(C)C (stereo partly drawn) [Ac-DEVD-CHO, N-(N-Acetyl-L-aspartyl-L-glutamyl-L-valinyl)-3-amino-3-formylpropionic acid] |  |  | enzyme activity at infinite time ([1]; 50 nM inhibitor, 1×Km Ac-DEVD-AMC): complete inhibition; also recorded: nearly complete suppression; activity in intact cells [2]: inactive; membrane permeability [2]: membrane impermeable
2 | CC(C)C[C@H](NC(=O)[C@H]1O[C@@H]1C(=O)O)C(=O)NCCCCN=C(N)N [Example E-64] |  | not | 
3 | CCN1C(=O)C=CC1=O [N-ethylmaleimide] |  | abolished | 
4 | NC(=O)CI [iodoacetamide] |  | abolished | 

More lines, main results first:

Row | IC50 [3] [µM] | Compound | effect on proteolytic cleavage of PARP [3] | other results
5 | > 10 | CC(=O)N[C@@H](CC(=O)O)C(=O)N[C@@H](CCC(=O)O)C(=O)N[C@H](C(=O)N[C@@H](CC(=O)O)C(=O)O)C(C)C [Ac-DEVD-COOH, N-Acetyl-aspartyl-glutamyl-valinyl-aspartic acid] |  | 
6 | > 10 | CC(=O)N[C@@H](Cc1ccc(O)cc1)C(=O)N[C@H](C(=O)N[C@@H](C)C(=O)N[C@H](C=O)CC(=O)O)C(C)C [Ac-YVAD-CHO] |  | Ki [1]: 12 µM
